In publication PMC10905675, “INX-315, a Selective CDK2 Inhibitor, Induces Cell Cycle Arrest and Senescence in Solid Tumors” (Cancer Discovery, 2023):

How the values were obtained:
[1] = system: palbociclib-resistant MCF7 cells; assay: CellTiter Glo viability assay; assay type: cell-based; settings: Homo sapiens, MCF7, Supp Fig S9B, CDK4/6 inhibitor monotherapy; read-out: IC50
Experimental: (§1) An exception to this is MCF7PDRCl5-1 cells which were first cultured for 5 days without palbociclib then plated as described. MCF7PDRCl5-1 cells were treated with either a dose curve of the indicated CDK4/6i or a dose curve of INX-315 + 1 µmol/L of the indicated CDK4/6i. Cell viability was determined using the CellTiter-Glo assay (Promega, G9241) following manufacturer's instructions. Plates were processed on either BioTek Synergy2 multi-mode (Agilent) or ClarioSTAR (BMG Labtech) plate readers. T47D and MCF7 cells were seeded into […] plates using BioTek 406 (Aglient) and treated with a ten-point dose concentration from 10 µmol/L to 0.3 nmol/L of INX-315 for 2× doubling times. Plates were fixed with 4% PFA and stained with Rhodamine-Phalloidin (Bio-Trend, 00027) and DAPI (5 mg/mL, Invitrogen, catalog no. D1306). Plates were imaged using CellInsight CX7 LZR and DAPI-positive cells were counted using Thermo Fisher Scientific HCS Studio Cell Analysis Software.

[2] = system: MMTV-rtTA/tetO-HER2 tumors; assay: Transgenic mammary tumor growth; assay type: in vivo, mice
Experimental: PDX models were performed by Crown Biosciences (OV5398, GA0103, and GA0114) or XenoSTART (ST4316B). Tumor fragments from stock mice were harvested and implanted subcutaneously into the flank of NOD/SCID mice (OV5398, RRID:IMSR_JAX:001303), BALB/c nude mice (GA0103 and GA0114, RRID:IMSR_RJ:BALB-C-NUDE), or athymic nude mice (Crl:NU(NCr)-Foxn1nu, RRID:IMSR_CRL:490) (ST4316B). For CDX models, female athymic nude mice (Crl:NU(NCr)-Foxn1nu, RRID:IMSR_CRL:490) were inoculated with 1 × 10^7 50% Cultrex OVCAR3 cells in the flank. Experiments performed using MMTV-rtTA/tetO-HER2 mice were performed at the Peter MacCallum Cancer Centre. Tumor formation was induced and sustained in female mice with doxycycline as previously described ([33]). Randomization and treatment in all models began when median tumor volume reached a maximum of 300 mm^3.
Mice were treated via oral gavage. INX-315 was prepared weekly in 100% PEG400; abemaciclib was prepared as previously described ([33]) and ribociclib (Selleckchem, S7440) was prepared weekly in 0.5% methyl cellulose. To generate abemaciclib-resistant MMTV-rtTA/tetO-HER2 tumors, mice were treated continuously with abemaciclib at a dose of 75 mg/kg until tumors resumed growth as described in text. […]

[3] = system: parental MCF7 and T47D cells; assay: Cell cycle flow cytometry; assay type: cell-based; settings: abemaciclib 500 nmol/L, 7 days
Experimental: One hour prior to endpoint, either 10 µmol/L BrdU or EdU was applied to the cells. Cells were stained using the Near-IR Fixable Viability Stain (Invitrogen, L34976) for 20 minutes at room temperature. Cells were fixed and permeabilized using FoxP3/Transcription Factor Staining Buffer Set (eBioscience, 00–5523–00; for BrdU-treated cells) or Click-iT fixative (for EdU-treated cells). DNA was denatured using 2N HCl + 0.5% (v/v) Triton X-100 for 30 minutes. […] Cells were then stained with BrdU antibody (clone 3D4, BioLegend, 364118, RRID:AB_2814318) for 1 hour. The EdU Click-iT reaction was performed using a Click-iT EdU Flow Cytometry Assay Kit (Invitrogen, C10418 or C10425). Prior to acquisition on the BD A3 Symphony or FACSCelesta, DNA was stained using FxCycle Violet ReadyFlow Reagent (BrdU) or FxCycle Far Red nucleic acid stain (Invitrogen, F10348) in combination with Rnase (Sigma R4642) (for EdU-treated cells). A minimum of 10,000 live cell events were recorded for each sample and data was analyzed using Flow Jo (Tree Star, RRID:SCR_008520).

[4] = system: MKN1; assay: CellTiter Glo viability assay; assay type: cell-based; settings: 6 days
Experimental: as §1

[5] = system: Hs68; assay: CellTiter Glo viability assay; assay type: cell-based; settings: benign human fibroblast cell line Hs68
Experimental: as §1

[6] = system: five cell lines with CCNE1 amplification (ovarian cancer); assay: CellTiter Glo viability assay; assay type: cell-based; settings: six days

| SMILES | IC50 [1] | tumors with tumor regression (>25% reduction in tumor volume) ([2]; abemaciclib monotherapy, 163 of 183 tumors) | regressing tumors that had resumed growth (acquired resistance) ([2]; by day 35 of abemaciclib treatment, 142 of 163) | cells in S-phase [3] | sensitivity of MKN1 [4] | IC50 [5] | sensitivity of CCNE1-amplified lines [6] |
| --- | --- | --- | --- | --- | --- | --- | --- |
| CCN1CCN(Cc2ccc(Nc3ncc(F)c(-c4cc(F)c5nc(C)n(C(C)C)c5c4)n3)nc2)CC1 [abemaciclib] | 5.71 µM | 89% | 87% | < 1% |  |  |  |
| CC(=O)c1c(C)c2cnc(Nc3ccc(N4CCNCC4)cn3)nc2n(C2CCCC2)c1=O [palbociclib, reference compound] | > 10 µM |  |  |  | insensitive | 0.026 µM | not sensitive |
